US20250368648A1, “MULTI-CYCLIC IRAK AND FLT3 INHIBITING COMPOUNDS AND USES THEREOF” (CHILDREN'S HOSPITAL MEDICAL CENTER, priority 2022, published 2025)

How the values were obtained:
IRAK4 = biological target: T1, IRAK4 (Homo sapiens, UniProt Q9NWZ3); test: RBC HotSpot Kinase Assay, IRAK4; assay type: biochemical; design: purchased RBC (Reaction Biology) HotSpot assay; conditions: HotSpot functional assay, isolated kinase enzyme, 33P-ATP
T1 sequence (Q9NWZ3 1-460): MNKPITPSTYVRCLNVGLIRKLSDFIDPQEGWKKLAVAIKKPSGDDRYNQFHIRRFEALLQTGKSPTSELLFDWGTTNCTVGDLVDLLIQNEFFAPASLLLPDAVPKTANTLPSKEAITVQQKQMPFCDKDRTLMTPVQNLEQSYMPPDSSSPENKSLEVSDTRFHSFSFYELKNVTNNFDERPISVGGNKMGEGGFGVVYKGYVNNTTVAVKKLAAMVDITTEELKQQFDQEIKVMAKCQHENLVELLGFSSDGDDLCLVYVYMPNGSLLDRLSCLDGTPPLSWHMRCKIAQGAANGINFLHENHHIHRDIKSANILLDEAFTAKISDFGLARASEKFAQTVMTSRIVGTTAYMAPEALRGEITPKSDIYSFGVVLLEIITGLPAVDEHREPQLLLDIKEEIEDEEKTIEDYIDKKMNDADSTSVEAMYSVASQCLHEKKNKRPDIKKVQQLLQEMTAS
Source text: (§1) This assay uses the isolated kinase enzyme. This assay is very useful for determining competition of the inhibitor for ATP and/or substrates and for measuring the kinetics of enzyme inhibition. […] Unlike kinase binding assays that measure competition for ATP, the HotSpot Kinase Assay is a functional assay that measures catalytic activity; as such it measures relative functional potency regardless of the mechanism of enzyme inhibition. This assay uses the form of the various enzymes that are easiest to express, which may not necessarily be the form of the enzyme that exist in the cell. (Sometimes the carboxy terminus has been truncated to aid in expression, or, if it is a receptor kinase, the enzyme itself is isolated from the other parts of the receptor that are involved in regulating kinase activity.)
(§2) The reagent used was as follows: Base Reaction buffer; 20 mM Hepes (pH 7.5), 10 mM MgCl2, 1 mM EGTA, 0.01% Brij35, 0.02 mg/mi BSA, 0.1 mM Na3VO4, 2 mM DTT, 1% DMSO. Required cofactors were added individually to each kinase reaction.
(§3) The reaction procedure was as follows: • 1) Substrates were prepared in freshly prepared Reaction Buffer. • 2) Any required cofactors were delivered to the substrate solution above. • 3) Kinase was delivered into the substrate solution and gently mixed. • 4) Compounds were delivered in 100% DMSO into the kinase reaction mixture by Acoustic technology (Echo550, nanoliter range), followed by incubation for 20 min at room temp. • 5) ^33P-ATP was delivered into the reaction mixture to initiate the reaction. • 6) The mixture was incubated for 2 hours at room temperature. • 7) Kinase activity was detected by P81 filter-binding method.

IRAK1 = biological target: T2, IRAK1 (Homo sapiens, UniProt P51617); test: RBC HotSpot Kinase Assay, IRAK1; assay type: biochemical; conditions: HotSpot functional assay, isolated kinase enzyme, 33P-ATP
T2 construct: purchased RBC (Reaction Biology) HotSpot assay
Source text: as §1, §2, §3

FLT3 = biological target: T3, FLT3 (Homo sapiens, UniProt P36888); test: RBC HotSpot Kinase Assay, FLT3; assay type: biochemical; design: purchased RBC (Reaction Biology) HotSpot assay; conditions: HotSpot functional assay, isolated kinase enzyme, 33P-ATP
T3 sequence (P36888 27-993): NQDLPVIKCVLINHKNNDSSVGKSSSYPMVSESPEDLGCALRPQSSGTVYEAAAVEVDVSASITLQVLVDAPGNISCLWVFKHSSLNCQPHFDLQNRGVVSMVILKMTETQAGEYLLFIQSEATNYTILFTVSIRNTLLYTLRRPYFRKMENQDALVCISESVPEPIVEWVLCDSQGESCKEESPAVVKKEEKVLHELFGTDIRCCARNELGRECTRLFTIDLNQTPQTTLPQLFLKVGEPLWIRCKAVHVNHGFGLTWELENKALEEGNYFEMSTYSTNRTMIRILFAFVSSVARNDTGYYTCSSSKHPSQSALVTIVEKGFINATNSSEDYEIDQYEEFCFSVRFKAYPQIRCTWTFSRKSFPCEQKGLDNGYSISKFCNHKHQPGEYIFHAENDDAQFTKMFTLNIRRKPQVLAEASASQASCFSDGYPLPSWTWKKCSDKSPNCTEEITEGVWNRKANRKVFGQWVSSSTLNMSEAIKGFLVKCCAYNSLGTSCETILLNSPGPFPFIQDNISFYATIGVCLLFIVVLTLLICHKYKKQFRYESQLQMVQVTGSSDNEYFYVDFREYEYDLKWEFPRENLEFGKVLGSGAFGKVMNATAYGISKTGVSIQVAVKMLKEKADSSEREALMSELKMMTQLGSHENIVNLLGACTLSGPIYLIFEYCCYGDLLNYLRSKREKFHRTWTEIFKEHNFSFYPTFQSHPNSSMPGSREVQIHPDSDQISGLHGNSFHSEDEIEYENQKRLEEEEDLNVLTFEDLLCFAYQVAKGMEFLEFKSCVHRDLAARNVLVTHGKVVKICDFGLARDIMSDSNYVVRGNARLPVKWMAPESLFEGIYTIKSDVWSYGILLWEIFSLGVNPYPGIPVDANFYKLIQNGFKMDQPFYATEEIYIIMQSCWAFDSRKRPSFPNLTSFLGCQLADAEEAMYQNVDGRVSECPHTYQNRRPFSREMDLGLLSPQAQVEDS
Source text: as §1, §2, §3

MOLM14 D835Y cells = test: MOLM14 D835Y cell viability assay (Cell Titer Glo); assay type: cell-based
Experimental: The cell line has activated FLT3 receptors which carry additional resistance mutations in the kinase domain (D835Y).
MOLM14 D835Y cells were grown in RPMI-1640 media supplemented with 20% fetal bovine serum (FBS). […] After cell addition, 23 nL of test compound were transferred into individual wells (22 doses tested for each test compound, with a 1:2 dilution series starting at 10 μM) via a 1536 pin-tool. Bortezomib (final concentration 2.3 μM) was used as a positive control for cell cytotoxicity.

T2 sequence (P51617 whole entry): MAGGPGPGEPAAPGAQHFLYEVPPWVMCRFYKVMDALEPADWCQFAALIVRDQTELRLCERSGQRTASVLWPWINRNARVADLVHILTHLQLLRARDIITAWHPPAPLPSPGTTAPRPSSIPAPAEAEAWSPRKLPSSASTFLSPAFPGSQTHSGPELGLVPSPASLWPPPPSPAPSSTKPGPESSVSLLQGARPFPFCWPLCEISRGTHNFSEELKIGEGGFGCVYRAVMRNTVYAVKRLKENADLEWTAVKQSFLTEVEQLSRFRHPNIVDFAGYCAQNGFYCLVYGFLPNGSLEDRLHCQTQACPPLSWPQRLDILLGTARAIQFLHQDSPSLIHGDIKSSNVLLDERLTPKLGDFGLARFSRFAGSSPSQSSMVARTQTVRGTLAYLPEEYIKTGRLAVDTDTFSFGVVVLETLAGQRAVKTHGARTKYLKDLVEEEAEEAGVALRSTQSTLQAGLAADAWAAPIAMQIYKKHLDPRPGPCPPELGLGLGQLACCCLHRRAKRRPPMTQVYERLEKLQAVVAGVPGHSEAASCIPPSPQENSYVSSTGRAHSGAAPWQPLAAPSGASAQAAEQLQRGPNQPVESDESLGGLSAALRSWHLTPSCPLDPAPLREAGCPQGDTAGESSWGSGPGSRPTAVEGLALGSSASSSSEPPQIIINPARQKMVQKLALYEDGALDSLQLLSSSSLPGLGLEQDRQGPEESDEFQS

| SMILES | IC50 (IRAK4) [nM] | IC50 (IRAK1) [nM] | IC50 (FLT3) [nM] | IC50 (MOLM14 D835Y cells; 48 hours) [nM] | IC50 (MOLM14 D835Y cells; Homo sapiens, MOLM-14, 48 h) [nM] |
| --- | --- | --- | --- | --- | --- |
| COc1cc2ncc(-c3nc(N[C@H]4CNCC[C@@H]4F)c(F)cc3F)n2nc1C(C)(O)C(F)(F)F (single isomer, unassigned) [Compound 76a] | 78 | 580 | < 0.5 | 81 |  |
| COc1cc2ncc(-c3nc(N[C@H]4CNC[C@@H]4F)c(F)cc3F)n2nc1C(C)(O)C(F)(F)F (single isomer, unassigned) [Compound 78a] | 92 | 983 | 1 | 229 |  |
| COc1cc2ncc(-c3nc(N[C@@H]4CCCNC4)c(F)cc3F)n2nc1C(C)(O)C(F)(F)F (single isomer, unassigned) [Compound 79a] | 521 | 822 | < 0.5 | 81 |  |
| COc1cc2ncc(-c3ccc(F)c(N[C@H]4CNCC[C@@H]4F)n3)n2nc1C(C)(C)O [Compound 1a, 2-(3-(5-fluoro-6-(((3S,4S)-4-fluoropiperidin-3-yl)amino)pyridin-2-yl)-7-methoxyimidazo[1,2-b]pyridazin-6-yl)propan-2-ol] | 158 | 2340 | 3 |  | 182 |
| COc1cc2ncc(-c3nc(N[C@H]4CNC[C@@H]4F)ccc3F)n2nc1C(C)(C)O [Compound 2a, 2-(3-(3-fluoro-6-(((3S,4S)-4-fluoropyrrolidin-3-yl)amino)pyridin-2-yl)-7-methoxyimidazo[1,2-b]pyridazin-6-yl)propan-2-ol] | 24 | 610 | 0.8 |  | 129 |
| COc1cc2ncc(-c3nc(N[C@@H]4CCCNC4)ccc3F)n2nc1C(C)(C)O [Compound 3a] | 148 | 437 | 1 |  | 46 |
| COc1cc2ncc(-c3nc(N[C@H]4CNCC[C@@H]4F)ccc3F)n2nc1C(C)(C)O [Compound 4a, 2-(3-(3-fluoro-6-(((3S,4S)-4-fluoropiperidin-3-yl)amino)pyridin-2-yl)-7-methoxyimidazo[1,2-b]pyridazin-6-yl)propan-2-ol] | 27 | 221 | < 0.5 |  | 29 |
| COc1cc2ncc(-c3ccc(F)c(N[C@H]4CNC[C@@H]4F)n3)n2nc1C(C)(C)O [Compound 5a, 2-(3-(5-fluoro-6-(((3S,4S)-4-fluoropyrrolidin-3-yl)amino)pyridin-2-yl)-7-methoxyimidazo[1,2-b]pyridazin-6-yl)propan-2-ol] | 70 | 2670 | 7 |  | 408 |
| COc1cc2ncc(-c3ccc(F)c(N[C@@H]4CCCNC4)n3)n2nc1C(C)(C)O [Compound 6a, (R)-2-(3-(5-fluoro-6-(piperidin-3-ylamino)pyridin-2-yl)-7-methoxyimidazo[1,2-b]pyridazin-6-yl)propan-2-ol] | 558 | 2850 | 9 |  | 289 |
| COc1cc2ncc(-c3nc(N[C@H]4CNC[C@@H]4F)c(F)cc3F)n2nc1C1CCC1 [Compound 13a, 6-(6-cyclobutyl-7-methoxyimidazo[1,2-b]pyridazin-3-yl)-3,5-difluoro-N-((3S,4S)-4-fluoropyrrolidin-3-yl)pyridin-2-amine] | 1 | 6 | < 0.5 |  | 58 |
| COc1cc2ncc(-c3nc(N[C@@H]4CCCNC4)c(F)cc3F)n2nc1C1CCC1 [Compound 14a, (R)-6-(6-cyclobutyl-7-methoxyimidazo[1,2-b]pyridazin-3-yl)-3,5-difluoro-N-(piperidin-3-yl)pyridin-2-amine] | 4 | 12 | < 0.5 |  | 15 |
| COc1cc2ncc(-c3cccc(N[C@H]4CNC[C@@H]4F)n3)n2nc1N1CCCC1=O [Compound 25a, 1-(3-(6-(((3S,4S)-4-fluoropyrrolidin-3-yl)amino)pyridin-2-yl)-7-methoxyimidazo[1,2-b]pyridazin-6-yl)pyrrolidin-2-one] | 336 | 283 | 1 |  | 1020 |
| COc1cc2ncc(-c3cccc(N[C@H]4CNCC[C@@H]4F)n3)n2nc1N1CCCC1=O [Compound 26a, 1-(3-(6-(((3S,4S)-4-fluoropiperidin-3-yl)amino)pyridin-2-yl)-7-methoxyimidazo[1,2-b]pyridazin-6-yl)pyrrolidin-2-one] | 237 | 290 | 0.9 |  | 257 |
| COc1cc2ncc(-c3ccc(C)c(N[C@H]4CNCC[C@@H]4F)n3)n2nc1C1CC1 [Compound 38a, 6-(6-cyclopropyl-7-methoxyimidazo[1,2-b]pyridazin-3-yl)-N-((3S,4S)-4-fluoropiperidin-3-yl)-3-methylpyridin-2-amine] | 7080 | > 10000 | 50 |  | 2890 |
| COc1cc2ncc(-c3nc(N[C@@H]4CCCNC4)c(F)cc3F)n2nc1N1CCCS1(=O)=O [Compound 68a, (R)-2-(3-(3,5-difluoro-6-(piperidin-3-ylamino)pyridin-2-yl)-7-methoxyimidazo[1,2-b]pyridazin-6-yl)isothiazolidine 1,1-dioxide] | 7 | 19 | < 0.5 |  |  |
| COc1cc2ncc(-c3nc(N[C@H]4CNC[C@@H]4F)c(F)cc3F)n2nc1N1CCCS1(=O)=O [Compound 69a, 2-(3-(3,5-difluoro-6-(((3S,4S)-4-fluoropyrrolidin-3-yl)amino)pyridin-2-yl)-7-methoxyimidazo[1,2-b]pyridazin-6-yl)isothiazolidine 1,1-dioxide] | 4 | 125 | < 0.5 |  |  |
| COc1cc2ncc(-c3nc(N[C@H]4CNCC[C@@H]4F)c(F)cc3F)n2nc1N1CCCS1(=O)=O [Compound 70a, 2-(3-(3,5-difluoro-6-(((3S,4S)-4-fluoropiperidin-3-yl)amino)pyridin-2-yl)-7-methoxyimidazo[1,2-b]pyridazin-6-yl)isothiazolidine 1,1-dioxide] | 10 | 60 | < 0.5 |  |  |
| COc1cc2ncc(-c3nc(N[C@@H]4CCCNC4)c(F)cc3F)n2nc1C1COC1 [Compound 72a, (R)-3,5-difluoro-6-(7-methoxy-6-(oxetan-3-yl)imidazo[1,2-b]pyridazin-3-yl)-N-(piperidin-3-yl)pyridin-2-amine] | 28 | 498 | < 0.5 |  |  |
